Data on five compounds can be found in patent US20020164637A1, “SCREEN FOR ECDYSONE RECEPTOR LIGANDS” (priority 1996, published 2002).

For assay [1], the target named is T1, EcR-Usp complexes (Drosophila melanogaster, UniProt P34021).
T1 construct: An immunoreactive polypeptide corresponding to the full EcR (100 kDa) was detected; ubiquitin (N, cleaved yes); made in house; host or cells: Saccharomyces cerevisiae strain BJ2168 (plasmids YEpEcR and YEpcUSP); unpurified cytosolic extract
T1 sequence (P34021 1-878): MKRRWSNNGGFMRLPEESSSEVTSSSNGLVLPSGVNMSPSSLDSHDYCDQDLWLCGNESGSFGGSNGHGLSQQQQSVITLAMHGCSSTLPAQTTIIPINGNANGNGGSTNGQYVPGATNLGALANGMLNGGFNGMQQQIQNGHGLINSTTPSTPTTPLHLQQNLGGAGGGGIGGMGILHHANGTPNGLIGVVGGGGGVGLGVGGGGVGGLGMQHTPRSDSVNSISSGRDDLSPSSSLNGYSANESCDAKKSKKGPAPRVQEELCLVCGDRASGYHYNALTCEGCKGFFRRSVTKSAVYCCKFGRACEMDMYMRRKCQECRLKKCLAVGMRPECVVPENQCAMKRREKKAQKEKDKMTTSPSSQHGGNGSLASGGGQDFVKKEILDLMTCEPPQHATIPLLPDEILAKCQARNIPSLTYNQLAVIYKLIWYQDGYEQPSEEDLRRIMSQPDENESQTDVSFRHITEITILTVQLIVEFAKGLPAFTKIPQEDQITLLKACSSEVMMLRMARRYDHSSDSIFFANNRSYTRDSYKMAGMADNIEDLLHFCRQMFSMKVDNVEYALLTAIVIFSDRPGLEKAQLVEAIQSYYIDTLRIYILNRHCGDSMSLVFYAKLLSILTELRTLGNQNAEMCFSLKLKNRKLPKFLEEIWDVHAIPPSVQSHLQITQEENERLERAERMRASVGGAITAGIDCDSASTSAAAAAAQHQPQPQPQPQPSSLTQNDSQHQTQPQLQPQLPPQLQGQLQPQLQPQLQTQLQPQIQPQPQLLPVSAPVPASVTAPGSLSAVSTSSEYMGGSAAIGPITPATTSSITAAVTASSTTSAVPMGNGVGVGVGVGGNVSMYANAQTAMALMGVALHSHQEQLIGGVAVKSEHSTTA
T1 sequence (P20153 1-508 partner): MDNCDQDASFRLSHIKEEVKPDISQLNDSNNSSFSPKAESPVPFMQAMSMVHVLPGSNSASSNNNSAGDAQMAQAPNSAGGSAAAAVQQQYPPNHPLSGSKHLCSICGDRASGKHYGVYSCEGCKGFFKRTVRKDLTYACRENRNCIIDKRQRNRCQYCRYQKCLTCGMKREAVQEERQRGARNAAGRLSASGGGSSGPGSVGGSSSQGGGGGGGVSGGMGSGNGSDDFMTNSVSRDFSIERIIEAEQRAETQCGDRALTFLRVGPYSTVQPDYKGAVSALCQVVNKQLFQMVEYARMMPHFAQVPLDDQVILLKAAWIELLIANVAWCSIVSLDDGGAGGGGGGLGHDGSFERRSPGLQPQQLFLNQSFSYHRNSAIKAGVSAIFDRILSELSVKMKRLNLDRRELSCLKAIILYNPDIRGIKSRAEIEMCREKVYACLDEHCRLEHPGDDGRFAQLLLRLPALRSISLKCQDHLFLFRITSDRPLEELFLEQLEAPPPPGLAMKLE
The experiment in a line: Competitive displacement of 3H-Ponasterone A binding to extract of yeast co-expressing EcR and Usp. The note with it: unlabelled ligand, FIG. 4, read-out: IC50 for displacing 3H-Ponasterone binding. Here is the method:
(§1) Overnight cultures of yeast strains expressing EcR, Usp, EcR+Usp, and EcR+RxR were inoculated into 1 liter of selective medium and incubated for 16 h at 30° C. In strains expressing Usp, cupric sulfate was added to a final concentration of 100 μM and the culture incubated an additional 4 h at 30° C. The cells were harvested by centrifugation and washed twice in cold TEDG buffer (10 mM Tris-HCl, pH 8.0, 0.1 mM EDTA, 2 mM dithiothreitol, 10% glycerol). The cell pellet was then resuspended in TEDG buffer containing 0.4M NaCl, and vortexed with glass beads in ten 30-second bursts. The resulting homogenate is centrifuged at 1000×g for 10 min, after which the supernatant is centrifuged at 100,000×g for 30 min. The final supernatant is collected, diluted to 12.5 mg/ml protein with TEDG buffer, and stored in aliquots at −80° C.
(§2) The following components were added to each reaction mixture:
(§3) (i) 40 μl yeast extract (12.5 mg/ml protein);
(ii) 20 μl ^3H-Ponasterone A (New England Nuclear, 195 Ci/mmol; 20 μl contains 100,000 cpm and a final concentration of 2.5 nM in the reaction mixture);
(iii) 120 μl TEDG buffer containing the following protease inhibitors: PMSF (Sigma Chemical Co.), 0.15 mg/ml; leupeptin (Bachem), 0.04 mg/ml; chymostatin (Bachem), 0.03 mg/ml; and pepstatin (Sigma), 0.01 mg/ml; and
(iv) 20 μl test sample, 25 μM Muristerone A, or control diluent.
The reactions were incubated for 1 h at room temperature or at least 12 h at 4° C. Protein-bound and -free radioactivity were separated by hydroxylapatite chromatography or by filtration, the individual samples suspended in scintillation fluid and the radioactivity determined by scintillation counting.
Specificity of hormone binding to the yeast extract was measured by testing the ability of four known (unlabelled) EcR ligands to displace 3H-Ponasterone binding.
The methods described in Example 2 above were used to test a collection of natural products for EcR binding activity (FIG. 7). The products were tested at 1 and 10 μg/ml. Of 92 compounds tested, one (present in well H8) displaced 62% of ^3H-Ponasterone A binding activity at 10 μg/ml.
A chemical library containing 6592 samples was also screened using the methods described above. Each sample was present at 10 μg/ml. Compounds that displaced at least 75% of the radiolabel were scored as positives. These compounds were then used to generate competitive binding curves as described above.
In general terms: In a radioligand displacement assay an active substance lowers the binding of a labelled ligand.

For assay [2] the following is noted: cited from earlier work.
For assay [3] the following is noted: cited from earlier work. The source holds these as a separate data set.
For assay [4], the target named is T1, EcR-Usp complexes. Briefly: Saturation and Scatchard analysis of 3H-Ponasterone A binding to extract of yeast co-expressing EcR and Usp. To be noted: extract from yeast strain co-expressing EcR and Usp. The procedure: as §1, §2, §3
(ii) 20 μl ^3H-Ponasterone A (New England Nuclear, 195 Ci/mmol; 20 μl contains 100,000 cpm and a final concentration of 2.5 nM in the reaction mixture); […]
The reactions were incubated for 1 h at room temperature or at least 12 h at 4° C. Protein-bound and -free radioactivity were separated by hydroxylapatite chromatography or by filtration, the individual samples suspended in scintillation fluid and the radioactivity determined by scintillation counting. […]

In general, IC50 refers to the concentration needed to halve the response being measured. As a reminder, the Kd is a measure of binding affinity in units of concentration. A higher Kd goes with lower affinity.

As for 20-hydroxyecdysone, the concentration for half-maximal inhibition (IC50) on EcR-Usp complexes [1] worked out at 500 nM. On the same count and under the same terms, then `CC(C)CC[C@@H](O)[C@](C)(O)[C@H]1CC[C@@]2(O)C3=CC(=O)[C@]4(O)C[C@@H](O)[C@@H](O)C[C@]4(C)[C@H]3[C@H](O)C[C@]12C` [muristerone A], with 15 nM; and `CC(C)CC[C@@H](O)[C@](C)(O)[C@H]1CC[C@@]2(O)C3=CC(=O)[C@@H]4C[C@@H](O)[C@@H](O)C[C@]4(C)[C@H]3CC[C@]12C` [ponasterone A], with 2 nM. On to `CC(C)(C)N(NC(=O)c1ccccc1)C(=O)c1ccccc1` [RH5849], for which, on EcR-Usp complexes [1], the IC50 is 12000 nM. Besides, the “fold less active in binding assays compared with 20-hydroxyecdysone” value in assay [2] is “at least 30 fold”. The “fold less active in bioassays compared with 20-hydroxyecdysone” value in assay [3] is reported as “at least 100 fold”.

^3H-Ponasterone A: the Kd at EcR-Usp complexes [4] amounted to 1.8 nM.
